The subject of the test is HIV-1 (H9IIIB strain). In words: Cell-based HIV infection assay using a reporter (Cell-Based), MT4-GFP cells. Particulars: Human immunodeficiency virus 1, MT4-GFP cells infected with HIV-1 H9IIIB; 50% normal human serum; mean of at least two independent experiments; read-out: Cell-based IP. An outline of the steps: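 IC50 from 4-parameter dose-response of % viral growth inhibition, using the 48 h/24 h infected-cell ratio scaled between DMSO and a protease/integrase/NNRTI triple-drug control. Assay used MT4 cells with HIV-LTR-GFP reporter, pre-infected 24 h with HIV-1 H9IIIB, in 50% normal human serum.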

Molecules are shown by their SMILES.

Regarding `C[C@H]1CNC[C@H](CCc2c(F)cccc2NC(=O)[C@@H](N)[C@H](c2cccc(F)c2)c2cccc(Cl)c2)N1S(C)(=O)=O` [Example 172, (βR)-3-chloro-N-(3-fluoro-2-{2-[(2S,6S)-6-methyl-1-(methylsulfonyl)piperazin-2-yl]ethyl}phenyl)-β-(3-fluorophenyl)-L-phenylalaninamide], the IC50 was 180 nM.
Next, `COC(=O)N[C@H](C(=O)Nc1cccc(F)c1CC[C@H]1CNC[C@@H](C)N1S(C)(=O)=O)[C@H](c1cccc(F)c1)c1cccc(Cl)c1` [Example 173, (βR)-3-chloro-N-(3-fluoro-2-{2-[(2S,6R)-6-methyl-1-(methylsulfonyl)piperazin-2-yl]ethyl}phenyl)-β-(3-fluorophenyl)-Nα-(methoxycarbonyl)-L-phenylalaninamide]: 90 nM; `COC(=O)N[C@H](C(=O)Nc1cccc(F)c1CC[C@H]1CNC[C@H](C)N1S(C)(=O)=O)[C@H](c1cccc(F)c1)c1cccc(Cl)c1` [Example 174, (βR)-3-chloro-N-(3-fluoro-2-{2-[(2S,6S)-6-methyl-1-(methylsulfonyl)piperazin-2-yl]ethyl}phenyl)-β-(3-fluorophenyl)-Nα-(methoxycarbonyl)-L-phenylalaninamide]: 99 nM; `COC(=O)N[C@H](C(=O)Nc1cccc(F)c1CC[C@H]1CNC[C@H](C)N1S(=O)(=O)C1CC1)[C@H](c1cccc(F)c1)c1cccc(Cl)c1` [Example 175, (βR)-3-chloro-N-(2-{2-[(2S,6S)-1-(cyclopropylsulfonyl)-6-methylpiperazin-2-yl]ethyl}-3-fluorophenyl)-β-(3-fluorophenyl)-Nα-(methoxycarbonyl)-L-phenylalaninamide]: 110 nM.
Consider `C[C@H]1CNC[C@H](CCc2c(F)cccc2NC(=O)[C@@H](N)[C@H](c2cccc(F)c2)c2cccc(Cl)c2)N1S(=O)(=O)C1CC1` [Example 176, (βR)-3-chloro-N-(2-{2-[(2S,6S)-1-(cyclopropylsulfonyl)-6-methylpiperazin-2-yl]ethyl}-3-fluorophenyl)-β-(3-fluorophenyl)-L-phenylalaninamide], for which the IC50 turned out to be 190 nM.
The value for `CC(C)[C@H](c1ccc(Cl)cc1)[C@H](N)C(=O)Nc1cncc(F)c1CC[C@H]1CNC[C@H](C)N1S(=O)(=O)C1CC1` [Example 177, (βR)-4-chloro-N-(4-{2-[(2S,6S)-1-(cyclopropylsulfonyl)-6-methylpiperazin-2-yl]ethyl}-5-fluoropyridin-3-yl)-β-(1-methylethyl)-L-phenylalaninamide] was 95 nM.
In the case of `CC(C)[C@H](c1ccc(Cl)cc1)[C@H](N)C(=O)Nc1cncc(F)c1CC[C@H]1CNC[C@@H](C)N1S(=O)(=O)C1CC1` [Example 178, (βR)-4-chloro-N-(4-{2-[(2S,6R)-1-(cyclopropylsulfonyl)-6-methylpiperazin-2-yl]ethyl}-5-fluoropyridin-3-yl)-β-(1-methylethyl)-L-phenylalaninamide], the IC50 was determined as 340 nM.
Next, `COC(=O)N[C@H](C(=O)Nc1cncc(F)c1CC[C@H]1CNC[C@H](C)N1S(=O)(=O)C1CC1)[C@@H](c1ccc(Cl)cc1)C(C)C` [Example 179, (βR)-4-chloro-N-(4-{2-[(2S,6S)-1-(cyclopropylsulfonyl)-6-methylpiperazin-2-yl]ethyl}-5-fluoropyridin-3-yl)-Nα-(methoxycarbonyl)-β-(1-methylethyl)-L-phenylalaninamide]: 33 nM; `COC(=O)N[C@H](C(=O)Nc1cncc(F)c1CC[C@H]1CNC[C@@H](C)N1S(=O)(=O)C1CC1)[C@@H](c1ccc(Cl)cc1)C(C)C` [Example 180, (βR)-4-chloro-N-(4-{2-[(2S,6R)-1-(cyclopropylsulfonyl)-6-methylpiperazin-2-yl]ethyl}-5-fluoropyridin-3-yl)-Nα-(methoxycarbonyl)-β-(1-methylethyl)-L-phenylalaninamide]: 69 nM.
The value for `C[C@@H]1CNC[C@H](CCc2c(F)cccc2NC(=O)[C@@H](N)C(c2cccc(F)c2)c2cccc(F)c2)N1S(=O)(=O)C1CC1` [Example 181, N-(2-{2-[(2S,6R)-1-(cyclopropylsulfonyl)-6-methylpiperazin-2-yl]ethyl}-3-fluorophenyl)-3-fluoro-β-(3-fluorophenyl)-L-phenylalaninamide] was 170 nM; that for `C[C@@H]1CNC[C@H](CCc2c(F)cncc2NC(=O)[C@@H](N)[C@@H](c2ccc(Cl)cc2)C2CCOCC2)N1S(C)(=O)=O` [Example 182, (βR)-4-chloro-N-(5-fluoro-4-{2-[(2S,6R)-6-methyl-1-(methylsulfonyl)piperazin-2-yl]ethyl}pyridin-3-yl)-β-(tetrahydro-2H-pyran-4-yl)-L-phenylalaninamide] was 130 nM; that for `COC(=O)N[C@H](C(=O)Nc1cccc(F)c1CC[C@H]1CNC[C@@H](C)N1S(C)(=O)=O)[C@@H](c1ccc(Cl)cc1)C1CCOCC1` [Example 183, (βR)-4-chloro-N-(3-fluoro-2-{2-[(2S,6R)-6-methyl-1-(methylsulfonyl)piperazin-2-yl]ethyl}phenyl)-Nα-(methoxycarbonyl)-β-(tetrahydro-2H-pyran-4-yl)-L-phenylalaninamide] was 67 nM.
For the compound `COC(=O)N[C@H](C(=O)Nc1cccc(F)c1CC[C@H]1CNC[C@@H](C)N1S(=O)(=O)c1ccccc1)[C@@H](c1ccc(Cl)cc1)c1cccc(F)c1` [Example 184, (βS)-4-chloro-N-(3-fluoro-2-{2-[(2S,6R)-6-methyl-1-(phenylsulfonyl)piperazin-2-yl]ethyl}phenyl)-β-(3-fluorophenyl)-Nα-(methoxycarbonyl)-L-phenylalaninamide], the IC50 turned out to be 25 nM.
The value for `COC(=O)N[C@H](C(=O)Nc1cccc(F)c1CC[C@H]1CNC[C@H](C)N1S(=O)(=O)c1ccccc1)[C@@H](c1ccc(Cl)cc1)c1cccc(F)c1` [Example 185, (βS)-4-chloro-N-(3-fluoro-2-{2-[(2S,6S)-6-methyl-1-(phenylsulfonyl)piperazin-2-yl]ethyl}phenyl)-β-(3-fluorophenyl)-Nα-(methoxycarbonyl)-L-phenylalaninamide] was 28 nM; that for `COc1ccc(S(=O)(=O)N2[C@@H](CCc3c(F)cccc3NC(=O)[C@@H](N)[C@@H](Cc3ccc(F)cc3)c3ccc(Cl)cc3)CNC[C@@H]2C)cc1` [Example 186, (βS)-4-chloro-β-(4-fluorobenzyl)-N-[3-fluoro-2-(2-{(2S,6S)-1-[(4-methoxyphenyl)sulfonyl]-6-methylpiperazin-2-yl}ethyl)phenyl]-L-phenylalaninamide] was 86 nM.
On to `COC(=O)N[C@H](C(=O)Nc1cccc(F)c1CC[C@H]1CNC[C@H](C)N1S(=O)(=O)c1ccc(OC)cc1)[C@@H](Cc1ccc(F)cc1)c1ccc(Cl)cc1` [Example 187, (βS)-4-chloro-β-(4-fluorobenzyl)-N-[3-fluoro-2-(2-{(2S,6S)-1-[(4-methoxyphenyl)sulfonyl]-6-methylpiperazin-2-yl}ethyl)phenyl]-Nα-(methoxycarbonyl)-L-phenylalaninamide], for which the IC50 is 35 nM.
The value for `COc1ccc([C@H](c2ccc(Cl)cc2)[C@H](N)C(=O)Nc2cccc(F)c2CC[C@H]2CNC[C@H](C)N2S(=O)(=O)c2ccc(OC(F)(F)F)cc2)cn1` [Example 188, (βS)-4-chloro-N-(3-fluoro-2-{2-[(2S,6S)-6-methyl-1-{[4-(trifluoromethoxy)phenyl]sulfonyl}piperazin-2-yl]ethyl}phenyl)-β-(6-methoxypyridin-3-yl)-L-phenylalaninamide] was 55 nM; that for `COC(=O)N[C@H](C(=O)Nc1cccc(F)c1CC[C@H]1CNC[C@H](C)N1S(=O)(=O)c1ccc(OC(F)(F)F)cc1)[C@@H](c1ccc(Cl)cc1)c1ccc(OC)nc1` [Example 189, (βS)-4-chloro-N-(3-fluoro-2-{2-[(2S,6S)-6-methyl-1-{[4-(trifluoromethoxy)phenyl]sulfonyl}piperazin-2-yl]ethyl}phenyl)-Nα-(methoxycarbonyl)-β-(6-methoxypyridin-3-yl)-L-phenylalaninamide] was 29 nM.
The value for `COC(=O)N[C@H](C(=O)Nc1cncc(F)c1CC[C@H]1CNC[C@H](C)N1S(C)(=O)=O)[C@@H](c1ccc(F)cc1)c1cc(F)cc(F)c1` [Example 190, (βS)-β-(3,5-difluorophenyl)-4-fluoro-N-(5-fluoro-4-{2-[(2S,6S)-6-methyl-1-(methylsulfonyl)piperazin-2-yl]ethyl}pyridin-3-yl)-Nα-(methoxycarbonyl)-L-phenylalaninamide] was 13 nM; that for `C[C@H]1CNC[C@H](CCc2c(F)cncc2NC(=O)[C@@H](N)[C@@H](c2ccc(F)cc2)c2cc(F)cc(F)c2)N1S(C)(=O)=O` [Example 191, (βS)-β-(3,5-difluorophenyl)-4-fluoro-N-(5-fluoro-4-{2-[(2S,6S)-6-methyl-1-(methylsulfonyl)piperazin-2-yl]ethyl}pyridin-3-yl)-L-phenylalaninamide] was 20 nM.
As to `C[C@@H]1CNC[C@H](CCc2c(F)cccc2NC(=O)[C@@H](N)[C@@H](c2ccc(F)cc2)c2cc(F)cc(F)c2)N1S(=O)(=O)C1CC1` [Example 192, (βS)-N-(2-{2-[(2S,6R)-1-(cyclopropylsulfonyl)-6-methylpiperazin-2-yl]ethyl}-3-fluorophenyl)-β-(3,5-difluorophenyl)-4-fluoro-L-phenylalaninamide], the IC50 was 36 nM.
Next, `C[C@H]1CNC[C@H](CCc2c(F)cccc2NC(=O)[C@@H](N)[C@@H](Cc2ccc(F)cc2)c2ccc(Cl)cc2)N1S(=O)(=O)c1ccccc1` [Example 193, (βS)-4-chloro-β-(4-fluorobenzyl)-N-(3-fluoro-2-{2-[(2S,6S)-6-methyl-1-(phenylsulfonyl)piperazin-2-yl]ethyl}phenyl)-L-phenylalaninamide]: 56 nM.

Source of the values: patent US9840478B2 (MERCK SHARP & DOHME CORP., priority 2013, dated 2017).
